# Data reported in patent publication US10000525B2, “Non-hormonal steroid modulators of NF-κB for treatment of disease” (ReveraGen Biopharma, Inc, priority 2010, dated 2018).
# Assays:
# mdx mice [1] = assay: In vivo mdx mouse model of dystrophy: body weight and muscle mass; conditions: 5 mg/kg/day per oral in feed, at 33.8 weeks age
# Protocol: (§1) Separate groups (n=12-14) of mdx mice were treated with prednisolone (5 mg/kg/day; per oral in feed), Example 1 (20 and 40 mg/kg/day; per oral in feed) and Example 2 (20 and 40 mg/kg/day; per oral in feed) for 3 months. All mice underwent 30 min biweekly treadmill exercise during the treatment duration to unmask the mild disease phenotype of mdx mouse model.
# mdx mice [2] = assay: mdx mouse model: histological evaluation (H&E) of gastrocnemius muscle; assay type: in vivo; conditions: for degeneration of skeletal muscle (H&E) / inflammation of skeletal muscle (H&E) / regenerating muscle fibers (H&E): 20 and 40 mg/kg/day per oral in feed, 3 months, in comparison to untreated and prednisolone treated mdx mice
# Protocol: as §1
# Hematoxylin and Eosin staining of gastrocnemius muscle of untreated mdx mice show significant degeneration and inflammation. […] Continuous administration of prednisolone appeared to increase degeneration and decrease in regeneration of dystrophic skeletal muscle.
# [3] = test system: extensor digitorum longus (EDL) muscle; assay: mdx mouse model: in vitro force contractions of EDL muscle; assay type: in vivo; conditions: mdx mice, prednisolone 5 mg/kg/day per oral in feed, 3 months
# Protocol: as §1
# The distal tendon of the extensor digitorum longus (EDL) muscle was tied securely to the lever arm of a servomotor/force transducer (model 305B, Aurora Scientific, Richmond Hill, ON, Canada) and the proximal tendon to a tissue clamp. Muscles were stimulated between two platinum electrodes. […] With the muscle held at Lo using stimulation frequencies of 30, 50, 80, 100, 120 and 150 Hz, the maximum isometric tetanic force (Po) developed during a 300 ms train of stimulation pulses was recorded for the EDL muscle. The muscle length was then measured with calipers and after removal of the muscle from the bath the mass of the muscle was determined. For each muscle, the optimum fiber length (Lf) was calculated by multiplying Lo by a previously determined Lf/Lo ratio of 0.45. […]
# [4] = continuous administration, 5 mg/kg/day per oral in feed
Structure (SMILES),body weight versus untreated mice (mdx mice [1]),degeneration of dystrophic skeletal muscle (H&E) (mdx mice [2]; [4]),regeneration of dystrophic skeletal muscle (H&E) (mdx mice [2]; [4]),"specific force of EDL muscle, versus untreated group [3]",degeneration of skeletal muscle (H&E) (mdx mice [2]),inflammation of skeletal muscle (H&E) (mdx mice [2]),regenerating muscle fibers (H&E) (mdx mice [2])
"C[C@]12C=CC(=O)C=C1CC[C@@H]1[C@@H]2[C@@H](O)C[C@@]2(C)[C@H]1CC[C@]2(O)C(=O)CO [Prednisolone, reference compound]",significantly lower body weight,increase,decrease,no statistically significant (P<0.05) difference,–,–,–
"C[C@]12CCC(=O)C=C1CCC1C2=CC[C@@]2(C)C1CC[C@]2(O)C(=O)CO (stereo partly drawn) [Example 1, (10S,13S,17R)-17-hydroxy-17-(2-hydroxyacetyl)-10,13-dimethyl-6,7,8,10,12,13,14,15,16,17-decahydro-1H-cyclopenta[a]phenanthren-3(2H)-one]",–,–,–,–,significant decrease,significant decrease,increase
"C[C@]12C=CC(=O)C=C1CCC1C2=CC[C@@]2(C)C1CC[C@]2(O)C(=O)CO (stereo partly drawn) [Example 2, (10S,13S,17R)-17-hydroxy-17-(2-hydroxyacetyl)-10,13-dimethyl-6,7,8,10,12,13,14,15,16,17-decahydro-3H-cyclopenta[a]phenanthren-3-one]",–,–,–,–,significant decrease,significant decrease,increase
